In article PMC12210654, “Palazestrant, a novel oral Complete Estrogen Receptor Antagonist (CERAN) and Selective Estrogen Receptor Degrader (SERD), in patients with ER+/HER2− advanced or metastatic breast cancer: phase 1/2 study results” (Breast Cancer Research : BCR, 2025):

Assay: Safety: adverse events (NCI CTCAE v5.0), electrocardiograms
Format: in vivo, human
Conditions: phase 1a; for TEAE Neutropenia, Toxicity Grade All: includes neutropenia and neutrophil count decreased
Protocol: Safety assessments included the monitoring of AEs, clinical laboratory parameters, electrocardiograms, and vital signs. AE severity was graded according to the National Cancer Institute Common Terminology Criteria for Adverse Events (version 5.0).
All DLT analyses (phase 1a) were performed in patients enrolled in the study during cycle 1 and who either received 75% of the planned palazestrant doses or experienced a DLT during cycle 1. All PK analyses were performed in patients who received at least 1 dose of palazestrant and had adequate postbaseline PK samples for characterization of PK parameters. All safety analyses were performed and PFS assessed in patients who received at least 1 dose of palazestrant. Clinical response (CR or PR) was assessed in patients who received at least 1 cycle of palazestrant, had measurable disease at baseline, and had at least 1 postbaseline tumor assessment. CBR was assessed in patients who received at least 1 cycle of palazestrant, had at least 1 postbaseline tumor assessment, and started their first dose at least 24 weeks before data cutoff. Patients who discontinued study treatment without radiographic progression within 24 weeks from the first dose were not included in the CBR analysis. PK parameters were estimated using conventional noncompartmental methods. For CBR, estimates were accompanied by 2-sided 95% confidence intervals (95% CIs). For PFS, Kaplan–Meier analyses were used to determine medians, event-free rates, and 95% CIs. For all other outcomes, categorical data were analyzed using frequencies and percentages, and continuous data were analyzed using means (standard deviation) or medians (range), as appropriate.

## CCCN1CC(Oc2ccc([C@@H]3c4[nH]c5ccccc5c4C[C@@H](C)N3CC(C)(C)F)cc2)C1 [palazestrant, Palazestrant]
60 mg (N=6)
  TEAE Vomiting, Toxicity Grade G3: 0
  TEAE Vomiting, Toxicity Grade G4: 0
  TEAE Neutropenia, Toxicity Grade All: 1 (16.7)
90 mg (N=6)
  TEAE Constipation, Toxicity Grade All: 1 (16.7)
  TEAE Constipation, Toxicity Grade G3: 0
  TEAE Constipation, Toxicity Grade G4: 0
  TEAE Decreased appetite, Toxicity Grade All: 1 (16.7)
  TEAE Decreased appetite, Toxicity Grade G3: 0
  TEAE Decreased appetite, Toxicity Grade G4: 0
  TEAE Diarrhea, Toxicity Grade All: 0
  TEAE Diarrhea, Toxicity Grade G3: 0
  TEAE Diarrhea, Toxicity Grade G4: 0
  TEAE Fatigue, Toxicity Grade All: 0
  TEAE Fatigue, Toxicity Grade G3: 0
  TEAE Fatigue, Toxicity Grade G4: 0
  TEAE Headache, Toxicity Grade All: 1 (16.7)
  TEAE Headache, Toxicity Grade G3: 0
  TEAE Headache, Toxicity Grade G4: 0
  TEAE Maculopapular rash, Toxicity Grade All: 0
  TEAE Maculopapular rash, Toxicity Grade G3: 0
  TEAE Maculopapular rash, Toxicity Grade G4: 0
  TEAE Nausea, Toxicity Grade All: 2 (33.3)
  TEAE Nausea, Toxicity Grade G3: 0
  TEAE Nausea, Toxicity Grade G4: 0
  TEAE Neutropenia, Toxicity Grade G3: 0
  TEAE Neutropenia, Toxicity Grade G4: 0
  TEAE Vomiting, Toxicity Grade All: 1 (16.7)
  TEAE Vomiting, Toxicity Grade G3: 0
  TEAE Vomiting, Toxicity Grade G4: 0
  TEAE Neutropenia, Toxicity Grade All: 0
120 mg (N=6)
  TEAE Constipation, Toxicity Grade All: 0
  TEAE Constipation, Toxicity Grade G3: 0
  TEAE Constipation, Toxicity Grade G4: 0
  TEAE Decreased appetite, Toxicity Grade All: 1 (16.7)
  TEAE Decreased appetite, Toxicity Grade G3: 0
  TEAE Decreased appetite, Toxicity Grade G4: 0
  TEAE Diarrhea, Toxicity Grade All: 1 (16.7)
  TEAE Diarrhea, Toxicity Grade G3: 0
  TEAE Diarrhea, Toxicity Grade G4: 0
  TEAE Fatigue, Toxicity Grade All: 2 (33.3)
  TEAE Fatigue, Toxicity Grade G3: 0
  TEAE Fatigue, Toxicity Grade G4: 0
  TEAE Headache, Toxicity Grade All: 1 (16.7)
  TEAE Headache, Toxicity Grade G3: 0
  TEAE Headache, Toxicity Grade G4: 0
  TEAE Maculopapular rash, Toxicity Grade All: 1 (16.7)
  TEAE Maculopapular rash, Toxicity Grade G3: 0
  TEAE Maculopapular rash, Toxicity Grade G4: 0
  TEAE Nausea, Toxicity Grade All: 5 (83.3)
  TEAE Nausea, Toxicity Grade G3: 0
  TEAE Nausea, Toxicity Grade G4: 0
  TEAE Neutropenia, Toxicity Grade G3: 0
  TEAE Neutropenia, Toxicity Grade G4: 1 (16.7)
  TEAE Vomiting, Toxicity Grade All: 2 (33.3)
  TEAE Vomiting, Toxicity Grade G3: 1 (16.7)
  TEAE Vomiting, Toxicity Grade G4: 0
  TEAE Neutropenia, Toxicity Grade All: 2 (33.3)
150 mg (N=5)
  TEAE Constipation, Toxicity Grade All: 0
  TEAE Constipation, Toxicity Grade G3: 0
  TEAE Constipation, Toxicity Grade G4: 0
  TEAE Decreased appetite, Toxicity Grade All: 1 (20.0)
  TEAE Decreased appetite, Toxicity Grade G3: 0
  TEAE Decreased appetite, Toxicity Grade G4: 0
  TEAE Diarrhea, Toxicity Grade All: 1 (20.0)
  TEAE Diarrhea, Toxicity Grade G3: 0
  TEAE Diarrhea, Toxicity Grade G4: 0
  TEAE Fatigue, Toxicity Grade All: 1 (20.0)
  TEAE Fatigue, Toxicity Grade G3: 1 (20.0)
  TEAE Fatigue, Toxicity Grade G4: 0
  TEAE Headache, Toxicity Grade All: 1 (20.0)
  TEAE Headache, Toxicity Grade G3: 0
  TEAE Headache, Toxicity Grade G4: 0
  TEAE Maculopapular rash, Toxicity Grade All: 0
  TEAE Maculopapular rash, Toxicity Grade G3: 0
  TEAE Maculopapular rash, Toxicity Grade G4: 0
  TEAE Nausea, Toxicity Grade All: 4 (80.0)
  TEAE Nausea, Toxicity Grade G3: 1 (20.0)
  TEAE Nausea, Toxicity Grade G4: 0
  TEAE Neutropenia, Toxicity Grade G3: 0
  TEAE Neutropenia, Toxicity Grade G4: 1 (20.0)
  TEAE Vomiting, Toxicity Grade All: 2 (40.0)
  TEAE Vomiting, Toxicity Grade G3: 0
  TEAE Vomiting, Toxicity Grade G4: 0
  TEAE Neutropenia, Toxicity Grade All: 2 (40.0)
210 mg (N=7)
  TEAE Constipation, Toxicity Grade All: 4 (57.1)
  TEAE Constipation, Toxicity Grade G3: 0
  TEAE Constipation, Toxicity Grade G4: 0
  TEAE Decreased appetite, Toxicity Grade All: 3 (42.9)
  TEAE Decreased appetite, Toxicity Grade G3: 0
  TEAE Decreased appetite, Toxicity Grade G4: 0
  TEAE Diarrhea, Toxicity Grade All: 0
  TEAE Diarrhea, Toxicity Grade G3: 0
  TEAE Diarrhea, Toxicity Grade G4: 0
  TEAE Fatigue, Toxicity Grade All: 2 (28.6)
  TEAE Fatigue, Toxicity Grade G3: 0
  TEAE Fatigue, Toxicity Grade G4: 0
  TEAE Headache, Toxicity Grade All: 0
  TEAE Headache, Toxicity Grade G3: 0
  TEAE Headache, Toxicity Grade G4: 0
  TEAE Maculopapular rash, Toxicity Grade All: 2 (28.6)
  TEAE Maculopapular rash, Toxicity Grade G3: 0
  TEAE Maculopapular rash, Toxicity Grade G4: 0
  TEAE Nausea, Toxicity Grade All: 4 (57.1)
  TEAE Nausea, Toxicity Grade G3: 0
  TEAE Nausea, Toxicity Grade G4: 0
  TEAE Neutropenia, Toxicity Grade G3: 0
  TEAE Neutropenia, Toxicity Grade G4: 0
  TEAE Vomiting, Toxicity Grade All: 1 (14.3)
  TEAE Vomiting, Toxicity Grade G3: 0
  TEAE Vomiting, Toxicity Grade G4: 0
  TEAE Neutropenia, Toxicity Grade All: 1 (14.3)
300 mg (N=7)
  TEAE Constipation, Toxicity Grade All: 3 (42.9)
  TEAE Constipation, Toxicity Grade G3: 0
  TEAE Constipation, Toxicity Grade G4: 0
  TEAE Decreased appetite, Toxicity Grade All: 3 (42.9)
  TEAE Decreased appetite, Toxicity Grade G3: 0
  TEAE Decreased appetite, Toxicity Grade G4: 0
  TEAE Diarrhea, Toxicity Grade All: 1 (14.3)
  TEAE Diarrhea, Toxicity Grade G3: 0
  TEAE Diarrhea, Toxicity Grade G4: 0
  TEAE Fatigue, Toxicity Grade All: 4 (57.1)
  TEAE Fatigue, Toxicity Grade G3: 0
  TEAE Fatigue, Toxicity Grade G4: 0
  TEAE Headache, Toxicity Grade All: 4 (57.1)
  TEAE Headache, Toxicity Grade G3: 0
  TEAE Headache, Toxicity Grade G4: 0
  TEAE Maculopapular rash, Toxicity Grade All: 2 (28.6)
  TEAE Maculopapular rash, Toxicity Grade G3: 0
  TEAE Maculopapular rash, Toxicity Grade G4: 0
  TEAE Nausea, Toxicity Grade All: 6 (85.7)
  TEAE Nausea, Toxicity Grade G3: 1 (14.3)
  TEAE Nausea, Toxicity Grade G4: 0
  TEAE Neutropenia, Toxicity Grade G3: 0
  TEAE Neutropenia, Toxicity Grade G4: 1 (14.3)
  TEAE Vomiting, Toxicity Grade All: 5 (71.4)
  TEAE Vomiting, Toxicity Grade G3: 0
  TEAE Vomiting, Toxicity Grade G4: 0
  TEAE Neutropenia, Toxicity Grade All: 3 (42.9)
Total (N=42)
  TEAE Constipation, Toxicity Grade All: 10 (23.8)
  TEAE Constipation, Toxicity Grade G3: 0
  TEAE Constipation, Toxicity Grade G4: 0
  TEAE Decreased appetite, Toxicity Grade All: 10 (23.8)
  TEAE Decreased appetite, Toxicity Grade G3: 0
  TEAE Decreased appetite, Toxicity Grade G4: 0
  TEAE Diarrhea, Toxicity Grade All: 7 (16.7)
  TEAE Diarrhea, Toxicity Grade G3: 0
  TEAE Diarrhea, Toxicity Grade G4: 0
  TEAE Fatigue, Toxicity Grade All: 14 (33.3)
  TEAE Fatigue, Toxicity Grade G3: 1 (2.4)
  TEAE Fatigue, Toxicity Grade G4: 0
  TEAE Headache, Toxicity Grade All: 9 (21.4)
  TEAE Headache, Toxicity Grade G3: 0
  TEAE Headache, Toxicity Grade G4: 0
  TEAE Maculopapular rash, Toxicity Grade All: 7 (16.7)
  TEAE Maculopapular rash, Toxicity Grade G3: 0
  TEAE Maculopapular rash, Toxicity Grade G4: 0
  TEAE Nausea, Toxicity Grade All: 25 (59.5)
  TEAE Nausea, Toxicity Grade G3: 2 (4.8)
  TEAE Nausea, Toxicity Grade G4: 0
  TEAE Neutropenia, Toxicity Grade G3: 0
  TEAE Neutropenia, Toxicity Grade G4: 4 (9.5)
  TEAE Vomiting, Toxicity Grade All: 13 (31.0)
  TEAE Vomiting, Toxicity Grade G3: 1 (2.4)
  TEAE Vomiting, Toxicity Grade G4: 0
  TEAE Neutropenia, Toxicity Grade All: 10 (23.8)
